Among the test systems are SK-MEL-28 melanoma; IGROV1 ovarian; HOP-62 NSCLC; SF-539 CNS; NCI-H226 lung; SNB-75 CNS; UO-31 renal; M14 melanoma; HCC-2998 colon; MDA-MB-231 breast.
Common to all, as to test: NCI-60 cell line screen, 48 h

The structures appear in SMILES notation.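 1) Cells in 96-well plates. 2) Compound, 48 h, 5 concentrations. 3) Linear interpolation between surrounding doses. 4) Unreached endpoint = highest concentration. GI50 marks 50% less growth. TGI denotes the concentration required for complete inhibition of growth.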

On to `COc1cc2c(=O)[nH]c3cc([N+](=O)[O-])ccc3c2cc1[N+](=O)[O-]`, for which the GI50 in the test with SK-MEL-28 melanoma is over 100 µM; with IGROV1 ovarian it was 3.87 µM; in the test with HOP-62 NSCLC it was 7.38 µM; in the test with SF-539 CNS, 4.65 µM; with NCI-H226 lung, 3.25 µM; in the test on SNB-75 CNS it was 2.08 µM. In addition, the GI50 in the test with UO-31 renal is 2.03 µM; with M14 melanoma, 7 µM; in the test with HCC-2998 colon, 19.5 µM; in the test on MDA-MB-231 breast it was 6.1 µM. Moreover, the TGI in the test on SK-MEL-28 melanoma was over 100 µM; in the test on IGROV1 ovarian it was over 100 µM; with HOP-62 NSCLC it was 36.2 µM; in the test on SF-539 CNS, over 100 µM; in the test on NCI-H226 lung it was 39.2 µM; in the test with SNB-75 CNS, 20 µM. Further, the TGI in the test on UO-31 renal, in the test with M14 melanoma, in the test with HCC-2998 colon and with MDA-MB-231 breast was over 100 µM in each case.

The values above are taken from PubChem BioAssay (NCI).
